# Laboratory results taken from paper PMC7532674, “Synthesis and preliminary studies of ^11C-labeled tetrahydro-1,7-naphthyridine-2-carboxamides for PET imaging of metabotropic glutamate receptor 2” (Theranostics, 2020).
# Read-outs that look alike come from different tables or passages of the source.
# Columns and labels:
# major CNS targets = assay: CNS panel binding selectivity assays (NIMH PDSP)
# [1] = system: mGlu1, mGlu4, mGlu5, mGlu6 and mGlu8; assay: Functional (agonist and antagonist) assays towards mGlu receptors; type: cell-based; details: mGlu1, 4, 5, 6, 8
# hERG = biological target: T1, hERG (Homo sapiens, UniProt Q12809); assay: hERG safety assay; type: binding
# T1 construct: NIMH PDSP
# T1 sequence (Q12809 whole entry): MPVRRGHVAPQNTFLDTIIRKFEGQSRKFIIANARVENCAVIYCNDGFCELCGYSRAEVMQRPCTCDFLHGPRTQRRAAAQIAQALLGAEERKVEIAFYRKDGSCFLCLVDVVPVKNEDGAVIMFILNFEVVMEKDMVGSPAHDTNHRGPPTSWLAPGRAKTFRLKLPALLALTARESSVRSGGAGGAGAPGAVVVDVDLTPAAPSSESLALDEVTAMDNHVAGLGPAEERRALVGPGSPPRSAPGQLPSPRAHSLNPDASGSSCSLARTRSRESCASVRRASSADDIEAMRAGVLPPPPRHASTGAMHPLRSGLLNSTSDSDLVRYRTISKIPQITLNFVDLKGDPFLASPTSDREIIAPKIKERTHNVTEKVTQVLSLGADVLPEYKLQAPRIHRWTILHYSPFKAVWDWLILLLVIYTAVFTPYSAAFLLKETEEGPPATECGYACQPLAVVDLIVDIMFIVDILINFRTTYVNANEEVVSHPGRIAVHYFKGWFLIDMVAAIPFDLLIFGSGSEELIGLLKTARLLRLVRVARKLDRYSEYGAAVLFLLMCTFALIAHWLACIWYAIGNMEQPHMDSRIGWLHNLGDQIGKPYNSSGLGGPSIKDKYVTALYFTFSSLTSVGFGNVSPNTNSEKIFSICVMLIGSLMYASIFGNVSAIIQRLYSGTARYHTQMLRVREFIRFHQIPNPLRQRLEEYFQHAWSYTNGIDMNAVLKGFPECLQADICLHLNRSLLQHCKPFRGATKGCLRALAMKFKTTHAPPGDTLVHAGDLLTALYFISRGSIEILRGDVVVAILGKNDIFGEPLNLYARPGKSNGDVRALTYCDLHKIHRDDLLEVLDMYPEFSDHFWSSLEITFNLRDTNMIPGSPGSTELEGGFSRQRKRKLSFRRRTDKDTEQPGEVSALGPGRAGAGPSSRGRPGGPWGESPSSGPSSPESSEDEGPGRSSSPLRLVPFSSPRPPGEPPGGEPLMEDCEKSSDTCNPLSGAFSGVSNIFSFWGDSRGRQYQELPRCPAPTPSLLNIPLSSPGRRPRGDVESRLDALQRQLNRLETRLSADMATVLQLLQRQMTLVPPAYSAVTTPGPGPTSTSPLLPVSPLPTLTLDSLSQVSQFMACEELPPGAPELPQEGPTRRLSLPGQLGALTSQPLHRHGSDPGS
# human mGlu3 = biological target: T2, human mGlu3 (Homo sapiens, UniProt Q14832); assay: Human mGlu3 GIRK thallium flux assay; type: cell-based; details: HEK293 cells, triplicate assays (14g duplicate)
# T2 construct: expressed in transfected cells
# T2 sequence (Q14832 23-879): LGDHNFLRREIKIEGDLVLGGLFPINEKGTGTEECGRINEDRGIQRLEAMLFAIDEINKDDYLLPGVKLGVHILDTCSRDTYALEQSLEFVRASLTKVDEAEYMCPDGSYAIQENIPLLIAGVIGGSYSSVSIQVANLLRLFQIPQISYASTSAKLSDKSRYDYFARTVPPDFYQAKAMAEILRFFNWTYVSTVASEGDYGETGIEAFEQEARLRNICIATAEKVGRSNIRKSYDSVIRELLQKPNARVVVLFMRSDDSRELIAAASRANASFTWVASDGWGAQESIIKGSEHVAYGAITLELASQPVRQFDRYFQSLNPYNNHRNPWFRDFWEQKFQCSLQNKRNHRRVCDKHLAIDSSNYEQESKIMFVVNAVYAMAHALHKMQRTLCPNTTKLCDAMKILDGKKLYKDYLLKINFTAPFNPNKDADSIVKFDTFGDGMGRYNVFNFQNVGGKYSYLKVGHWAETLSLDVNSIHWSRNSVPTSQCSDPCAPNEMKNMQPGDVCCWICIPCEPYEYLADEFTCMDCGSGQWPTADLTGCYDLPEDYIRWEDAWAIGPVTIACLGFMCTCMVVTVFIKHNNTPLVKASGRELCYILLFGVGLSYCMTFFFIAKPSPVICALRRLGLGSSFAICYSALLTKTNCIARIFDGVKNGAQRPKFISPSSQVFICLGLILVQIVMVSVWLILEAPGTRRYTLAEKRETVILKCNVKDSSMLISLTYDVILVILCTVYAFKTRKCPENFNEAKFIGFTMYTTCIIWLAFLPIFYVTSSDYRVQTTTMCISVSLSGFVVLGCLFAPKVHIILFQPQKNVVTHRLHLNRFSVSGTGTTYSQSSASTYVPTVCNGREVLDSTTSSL
# Protocol: (§1) Cell Line Generation and Thallium Flux Assays. The general procedure for the preparation of human mGlu2 and mGlu3 was described previously, [56] with minor modifications in this work. The cloning sites were NheI/NotI for both receptors. HEK GIRK cells, generously provided by Lily Jan (University of California San Francisco, San Francisco, CA), were transfected with 24 μg of DNA using Fugene6 (Promega), stable transfectants were selected with 1 μg/mL puromycin dihydrochloride (Sigma-Aldrich, St. Louis, MO), and polyclonal human mGlu2 GIRK and mGlu3 GIRK cell lines were established. Cells were maintained following selection in 45% DMEM, 45% Ham's F12, 10% FBS, 100 units/mL penicillin/streptomycin, 20 mM HEPES, pH 7.3, 1 mM sodium pyruvate, 2 mM glutamine, 700 μg/mL G418 (Mediatech, Inc., Herndon, VA), and […] puromycin (growth media) at 37 °C in the presence of 5% CO2. All cell culture reagents were purchased from Invitrogen Corp. (Carlsbad, CA) unless otherwise noted.
# (§2) Human mGlu2 and mGlu3 Thallium Flux in Vitro Assays. Potencies of these NAMs at both mGlu2 and mGlu3 were investigated by thallium flux through GIRK channels, which was disclosed in detail as well as described in our previous work. In particular, cells were plated into 384-well, black-walled, clear-bottomed poly(D-lysine_-coated plates at a density of 15 000 cells per well in 20 μL of DMEM containing 10% dialyzed FBS, 20 mM HEPES, and 100 units/mL penicillin/streptomycin (assay media). Plated cells were incubated overnight at 37 °C in the presence of 5% CO2. The next day, the medium was exchanged from the cells to assay buffer [Hanks' balanced salt solution (Invitrogen) containing 20 mM HEPES, pH 7.3] using an ELX405 microplate washer (BioTek), leaving 20 μL per well, followed by the addition of 20 μL per well of FluoZin2-AM (330 nM final concentration) indicator dye (Invitrogen; prepared as a stock in DMSO and mixed in a 1:1 ratio with Pluronic acid F-127) in assay buffer. Cells were incubated for 1 h at room temperature, and the dye was exchanged to assay buffer using an ELX405, leaving 20 μL per well. For concentration-response curve experiments, compounds were serially diluted 1:3 into 10 point concentration-response curves and were transferred to daughter plates using an Echo acoustic plate reformatter (Labcyte, Sunnyvale, CA). Test compounds were diluted to 2 times their final desired concentration in assay buffer (0.3% DMSO final concentration). Agonists were diluted in thallium buffer [125 mM sodium bicarbonate (added fresh the morning of the experiment), 1 mM magnesium sulfate, 1.8 mM calcium sulfate, 5 mM glucose, 12 mM thallium sulfate, and 10 mM HEPES, pH 7.3] at 5 times the final concentration to be assayed. Cell plates and compound plates were loaded onto a kinetic imaging plate reader (FDSS 6000 or 7000; Hamamatsu Corporation, Bridgewater, NJ). Appropriate baseline readings were taken (10 images at 1 Hz; excitation, 470 ± 20 nm; emission, 540 ± 30 nm), and test compounds were added in a 20 μL volume and incubated for approximately 1 h at room temperature before the addition of 10 μL of thallium buffer with or without an EC80 concentration of the agonist glutamate for affinity evaluation experiments or with a full concentration-response of glutamate for Schild analysis experiments. After the addition of agonist, data were collected for approximately an additional 2.5 min. Data were analyzed using Excel (Microsoft Corp, Redmond, WA). The slope of the fluorescence increase beginning 5 s after thallium/agonist addition and ending 15 s after thallium/agonist addition was calculated, corrected to vehicle and maximal agonist control slope values, and plotted using either XLfit (ID Business Solutions Ltd.) or Prism software (GraphPad Software, San Diego, CA) to generate concentration-response curves. Potencies were calculated from fits using a four-point parameter logistic equation.
# human mGlu2 = biological target: T3, human mGlu2 (Homo sapiens, UniProt Q14416); assay: Human mGlu2 GIRK thallium flux assay; type: cell-based; details: HEK293 cells, EC80 glutamate, triplicate assays (14g duplicate)
# T3 construct: expressed in transfected cells
# T3 sequence (Q14416 19-872): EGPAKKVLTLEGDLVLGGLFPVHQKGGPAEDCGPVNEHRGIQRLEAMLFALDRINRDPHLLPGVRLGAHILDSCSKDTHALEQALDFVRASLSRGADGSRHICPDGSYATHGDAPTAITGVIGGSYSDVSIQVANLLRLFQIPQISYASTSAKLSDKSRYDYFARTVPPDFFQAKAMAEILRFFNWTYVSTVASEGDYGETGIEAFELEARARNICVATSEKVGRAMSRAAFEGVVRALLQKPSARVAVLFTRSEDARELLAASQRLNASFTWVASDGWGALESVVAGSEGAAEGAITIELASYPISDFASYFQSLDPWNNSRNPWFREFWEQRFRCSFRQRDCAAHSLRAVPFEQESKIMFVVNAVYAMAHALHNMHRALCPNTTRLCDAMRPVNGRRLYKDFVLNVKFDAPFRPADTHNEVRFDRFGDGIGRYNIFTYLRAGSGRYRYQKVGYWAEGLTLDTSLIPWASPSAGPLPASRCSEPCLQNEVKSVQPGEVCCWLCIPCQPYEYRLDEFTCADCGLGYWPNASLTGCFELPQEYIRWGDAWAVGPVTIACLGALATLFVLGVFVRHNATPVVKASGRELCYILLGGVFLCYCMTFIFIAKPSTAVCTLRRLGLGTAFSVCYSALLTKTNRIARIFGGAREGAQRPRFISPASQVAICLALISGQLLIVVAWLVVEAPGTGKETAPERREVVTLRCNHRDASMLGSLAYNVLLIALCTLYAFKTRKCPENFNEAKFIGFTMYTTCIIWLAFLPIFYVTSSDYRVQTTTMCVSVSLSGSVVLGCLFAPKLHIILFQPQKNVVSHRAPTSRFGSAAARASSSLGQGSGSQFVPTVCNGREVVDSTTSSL
# Protocol: as §1, §2
# [2] = Radiometabolite analysis in plasma and brain; type: in vivo, Sprague-Dawley rats; details: SD rats
# Protocol: Sprague-Dawley rats were sacrificed by decapitation under anesthesia at 5 and 20 min (n = 2 each time point) after the intravenous injection of [^11C]14b. Blood and whole brain samples were quickly harvested. Plasma was separated from the blood samples via 1) centrifuging at 15,000 g for 2 min at 4 °C, 2) mixing 0.5 mL of acetonitrile with 0.5 mL of supernatant, and then 3) vortexing for 15 s and centrifuging again at 15,000 g for 2 min for deproteinization. In terms of brain metabolite analysis, the removed rat brain was quickly placed on the ice, homogenized in an ice-cooled CH3CN/H2O (v/v, 1/1, 1 mL) solution, and then centrifuged at 15,000 g for 2 min at 4 °C. The supernatant was collected, whose radioactivity was >90% based on the total radioactivity in the brain homogenate. An aliquot of the supernatant (100 μL) obtained from the plasma or brain homogenate was injected into the radio-HPLC system and analyzed using a Capcell Pak UG80 C18 column (4.6 mm ID × 250 mm) in a mobile phase of CH3CN/H2O + 0.1% Et3N (v/v, 45/55) at a flow rate of 1.0 mL/min. The percentage of [^11C]14b to total radioactivity (corrected for decay) on the HPLC charts was calculated as ([peak area for [^11C]14b]/[total peak area]) × 100.
# mGlu2 [3] = biological target: T4, mGlu2 (Rattus norvegicus, UniProt P31421); assay: In vitro autoradiography in rat brain sections; type: binding; design: from tissue; host or cells: Sprague-Dawley rat brain sections
# T4 sequence (P31421 19-872): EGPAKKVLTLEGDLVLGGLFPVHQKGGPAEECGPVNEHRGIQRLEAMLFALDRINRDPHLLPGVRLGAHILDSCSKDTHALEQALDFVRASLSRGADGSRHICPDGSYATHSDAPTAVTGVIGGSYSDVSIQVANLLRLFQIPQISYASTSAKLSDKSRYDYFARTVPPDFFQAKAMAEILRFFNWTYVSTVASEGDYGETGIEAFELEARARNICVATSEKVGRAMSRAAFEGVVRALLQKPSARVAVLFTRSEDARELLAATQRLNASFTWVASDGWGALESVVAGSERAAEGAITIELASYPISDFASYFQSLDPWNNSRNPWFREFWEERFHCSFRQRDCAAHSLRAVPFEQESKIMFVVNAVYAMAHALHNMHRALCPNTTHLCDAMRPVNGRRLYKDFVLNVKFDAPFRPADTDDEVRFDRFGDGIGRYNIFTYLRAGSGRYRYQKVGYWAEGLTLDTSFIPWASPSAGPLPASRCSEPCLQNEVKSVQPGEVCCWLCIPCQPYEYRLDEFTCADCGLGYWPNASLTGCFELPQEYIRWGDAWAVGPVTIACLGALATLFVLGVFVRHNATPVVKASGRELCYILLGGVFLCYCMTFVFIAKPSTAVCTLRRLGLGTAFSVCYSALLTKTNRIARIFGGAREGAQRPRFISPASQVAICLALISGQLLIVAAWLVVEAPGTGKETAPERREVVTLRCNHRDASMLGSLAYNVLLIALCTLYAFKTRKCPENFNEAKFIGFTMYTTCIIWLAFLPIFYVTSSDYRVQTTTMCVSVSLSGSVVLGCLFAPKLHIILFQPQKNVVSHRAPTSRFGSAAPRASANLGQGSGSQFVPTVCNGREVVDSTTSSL
# Protocol: Sagittal rat brain slices were prepared into 20 μm sections with a cryostat (HM560; Carl Zeiss, Oberkochen, Germany), mounted on air plasma spray-coated glass slides, and stored at -80 °C before used for experiments. The sections were preincubated for 15 min in a glass tank containing 200 mL of Tris·HCl buffer (50 mM, pH 7.4) consisting of 2 mM of MgCl2 and 1.2 mM of CaCl2 at room temperature. After preincubation, the sections were incubated in a fresh buffer containing [^11C]14a or [^11C]14b (250 µCi in 200 mL buffer; molar activity 2.7 Ci/µmol of [^11C]14a and 2.5 Ci/µmol of [^11C]14b, respectively) in the glass tank for 30 min at room temperature. For blocking studies, non-radioactive 14a or 14b (10 μM) and QCA (10 μM) were chosen to determine the specificity of radiotracers for binding mGlu2. Six serial brain sections were used for each conditions. After incubation, brain sections were washed with cold buffer (3 × 5 min), immersed in cold distilled water, and then dried with cold air. The sections were placed in contact with imaging plates (BAS-MS2025, FUJIFILM, Tokyo, Japan). Autoradiograms were obtained and photostimulated luminescence (PSL) values in the ROIs were measured using a Bio-Imaging Analyzer System (BAS5000, FUJIFILM).
# [4] = Whole body ex vivo biodistribution in mice
# Protocol: Each mouse was treated with a bolus injection of [^11C]14b (50 μCi / 150 μL) via the tail vein. Three mice were sacrificed by cervical dislocation at each time point (1, 5, 15, 30 and 60 min) after injection. Major organs, including heart, lungs, liver, pancreas, spleen, kidneys, stomach (including contents), small intestine (including contents), large intestine (including contents), testes, muscle, whole brain and blood samples were quickly removed and weighed. The radioactivity remained in these organs was measured by a 2480 Wizard autogamma counter (PerkinElmer, USA). The results are expressed as the percentage of injected dose per gram of wet tissue (%ID/g) or standardized uptake value (SUV). All radioactivity measurements were decay-corrected to the time point of PET tracer injection based on half-life of ^11C.
# mGlu2 [5] = biological target: T4, mGlu2; assay: Dynamic PET imaging in rat brain; type: in vivo, SD rats; design: from tissue; host or cells: brain of living SD rats
# Protocol: As we previously reported, PET scans were carried out by an Inveon PET scanner (Siemens Medical Solutions, Knoxville, TN, USA). During the scan, SD rats were anesthetized by oxygen mixed with 1-2% (v/v) isoflurane and kept body temperature at […] by a commercially available circulation system (T/Pump TP401, Gaymar Industries, Orchard Park, NY). A 24-gauge catheter was inserted into the tail vein to facilitate a bolus injection. The radiotracer [^11C]14a or [^11C]14b (ca. 1 mCi / 150-200 μL) was injected into the rat via the preinstalled catheter, and the dynamic acquisition of PET signals in rat brain was started at the same time and lasted for 60 min in 3D list mode. For pretreatment studies, 14a (1 mg/kg for [^11C]14a for self-blocking study in Figure S2; 3 mg/kg for [^11C]14b for blocking study in Figure S12C) or 14b (1 mg/kg for [^11C]14b for self-blocking study in Figure S12B), formulated in 300 μL of saline containing 10% ethanol and 5% Tween 80, was injected at 30 min via the tail vein catheter prior to the injection of [^11C]14a or [^11C]14b. The dynamic emission data were reconstructed by filtered back projection using Hanning's filter with a Nyquist cutoff of 0.5 cycle/pixel into 33 frames (10 s × twelve frames, 20 s × three frames, 30 s × three frames, 60 s × three frames, 150 s × three frames, and 300 s × nine frames). The TACs of [^11C]14a or [^11C]14b were analyzed from volumes of interest in the striatum, hippocampus, cortex, thalamus, pons and cerebellum normalized to a rat brain MRI template using PMOD software (version 3.4; PMOD technology, Zurich, Switzerland). The radioactivity was decay-corrected to the injection time and expressed as the standardized uptake value (SUV) which equals to (radioactivity per milliliter of tissue per injected radioactivity) × (gram of body weight). To obtain non-displaceable binding potential (BPND), simplified reference tissue model (SRTM), [54] was carried out on the basis of kinetic analysis using PMOD software. We acquired BP-parametric images using kinetic modeling without masking. Respective TACs in receptor-rich or -poor region were loaded for production of BP-map with default setting. Representative parametric images scaled with BPND were reconstructed by PMOD software using TACs in mGlu2-enriched and reference regions. Pons was selected as the reference region for mGlu2 (the lowest and consistent brain uptake and washout kinetics between baseline and blocking conditions). It should be noted that while there is a low-level expression of mGlu2 in the pons, it is not without existence. A reference region should be a region devoid of the target, but with similar tracer transport or diffusion to the other regions of interest with expression of the target. Therefore, there are some limitations when using pons as the reference region. For example, the partial volume effect in PET likely leads to spillover of activity from nearby higher uptake regions into the pons, artificially increasing the time-activity curve in the pons.
# [6] = cited from earlier work
# [7] = design: method as in PMID 30611634; details: cited from earlier work
# mGlu2 [8] = details: cited from earlier work
# [9] = SRTM, pons as reference, baseline
compound,measurement,setting,value
"COc1cc(CN2CCc3c(-c4ccc(F)cc4F)cc(C(N)=O)nc3C2)ccn1 [14b, 4-(2,4-difluorophenyl)-7-((2-methoxypyridin-4-yl)methyl)-5,6,7,8-tetrahydro-1,7-naphthyridine-2-carboxamide]",Off-target binding,"major CNS targets; 10 μM compound, n = 4",No significant off-target binding (>50%)
same,Response with other major brain targets,"major CNS targets; comprehensive CNS panel, NIMH PDSP",no significant response
same,Interaction with related mGlu receptor family,[1],no substantial interaction
same,Activity in hERG safety assay,hERG,no activity
same,IC50,human mGlu3,> 10 µM
same,IC50,human mGlu2,24 nM
"[11CH3]Oc1cc(CN2CCc3c(-c4ccc(F)cc4F)cc(C(N)=O)nc3C2)ccn1 [[^11C]14b, 4-(2,4-difluorophenyl)-7-((2-(methoxy-^11C)pyridine-4-yl)methyl)-5,6,7,8-tetrahydro-1,7-naphthyridine-2-carboxamide]",Unchanged fraction in plasma,[2]; 5 min post injection,77%
same,Unchanged fraction in brain,[2]; 20 min post injection,> 99%
same,Unchanged fraction in plasma,[2]; 20 min post injection,21%
same,Ratio of cerebellum to pons,"mGlu2 [3]; autoradiography, baseline",1.78
same,Ratio of cerebral cortex to pons,"mGlu2 [3]; autoradiography, baseline",2.61
same,Ratio of hippocampus to pons,"mGlu2 [3]; autoradiography, baseline",2.00
same,Ratio of striatum to pons,"mGlu2 [3]; autoradiography, baseline",2.79
same,Decrease of region-to-pons ratios under blocking,"mGlu2 [3]; preincubated with unlabeled QCA, 14b or 14a at 10 µM",45-69%
same,Ratio of %ID/g(1min/60min) in blood,[4],> 3.5
same,Brain uptake,[4]; 5 min post injection,ca. 3.6 %ID/g
same,"Radioactivity in heart, lungs, liver, pancreas, kidneys and small intestine",[4]; within initial 1 min,> 4 %ID/g
same,Time of peak radioactivity in brain regions,"mGlu2 [5]; SD rats, i.v.",≤ 3 min
same,BPND in cerebellum,mGlu2 [5]; [9],0.12
same,BPND in striatum and cingulate cortex,mGlu2 [5]; [9],0.72
same,Reduction of BPND,"mGlu2 [5]; pretreatment with 14a, 3 mg/kg i.v. 30 min before",48-90%
same,Reduction of BPND,"mGlu2 [5]; pretreatment with 14b, 1 mg/kg i.v. 30 min before",41-88%
"Cc1cc(COc2cnc(C(N)=O)cc2-c2ccc(O[11CH3])cc2F)ccn1 [[^11C]MMP, 4-(2-fluoro-4-[^11C]methoxyphenyl)-5-((2-methylpyridin-4-yl)methoxy)picolinamide]","Brain uptake, peak value",[6]; animal PET,~ 0.6
same,LogD,[7],3.30
same,IC50,mGlu2 [8],0.026 µM
"[11CH3]Oc1ccc(-c2cc(C(N)=O)nc3cc(CN4C(=O)CCC4=O)ccc23)c(F)c1 [[^11C]QCA, 7-((2,5-Dioxopyrrolidin-1-yl)methyl)-4-(2-fluoro-4-[^11C]methoxyphenyl) quinoline-2-carboxamide]","Brain uptake, peak value",[6],~ 0.3 SUV
same,IC50,mGlu2 [8],0.045 µM
